Read-outs that look alike come from different tables or passages of the source.
Legend:
[1] = Phase 1 study, interim cohort pharmacokinetics; assay type: in vivo, human; details: for dose proportionality of PK: Cycle 2 Day 1 (C2D1); for exposure with increase in dose: interim cohort PK
Experimental: Serial blood samples are obtained to characterize the plasma PK of Compound A and its major active metabolites. The initial sampling strategy is based on the predicted human PK of this compound. If in the course of evaluating the PK, it is determined that an alternative sampling scheme would be more informative, then that alternative sampling scheme can be implemented if the total amount of blood and blood draws obtained for PK is not increased. Moreover, the total number of samples can be decreased at any time if the initial sampling scheme is considered unnecessarily intensive.

[2] = system: PD-L1-positive, advanced NSCLC; details: cited from earlier work
advanced melanoma = details: median follow-up 9 months after completion of 2 years of pembrolizumab; cited from earlier work
PD-1 pathway = details: cited from earlier work
[3] = system: CMV specific memory T cells; details: versus isotype-matched control, dose-dependent; cited from earlier work
[4] = cited from earlier work
NSCLC [5] = details: cited from earlier work
NSCLC [6] = details: cited from earlier work; remark: listed apart in the source
advanced NSCLC = details: cited from earlier work

C=C(C)c1cnn2c(N[C@@H]3CCc4[nH]c5ccccc5c4C3)nc(-c3cncc(F)c3)nc12 [Compound C]
ratio of Compound C to Compound A (AUC) ([1]; 400 mg and 800 mg dose): 15-20 % of parent
dose proportionality of PK [1]: greater than dose proportional
exposure with increase in dose [1]: Increased exposure with increase in dose

pembrolizumab
patients with confirmed progression after stopping at 2 years ([2]; 47 patients who completed 2 years): 4%
OS hazard ratio (HR) compared to docetaxel ([2]; pembrolizumab 2 mg/kg every 3 weeks): 0.72
OS hazard ratio (HR) compared to docetaxel ([2]; pembrolizumab 10 mg/kg every 3 weeks): 0.60
estimated risk of progression or death (advanced melanoma): 9%

CC(C)(O)c1cnn2c(N[C@@H]3CCc4[nH]c5ccccc5c4C3)nc(-c3cncc(F)c3)nc12 [Compound B]
ratio of Compound B to Compound A ([1]; C2D1, 400 mg and 800 mg dose): 1.3-1.4 x parent
Compound B metabolite ratio ([1]; C2D1, cohorts above 200 mg): increased
dose proportionality of PK [1]: greater than dose proportional
accumulation with repeat dosing ([1]; above 200 mg): Accumulation
exposure with increase in dose [1]: Increased exposure with increase in dose
AUC relative to Compound A ([1]; repeated dosing, 2/3 subjects at 400 and 800 mg): greater than Compound A

nivolumab: human monoclonal antibody (IgG4 kappa immunoglobulin) that blocks the interaction between PD-1 and its ligands
proliferation and IFN-γ release in the MLR (PD-1 pathway): reproducible enhancement
IFN-γ secretion from CMV specific memory T cells [3]: augmented IFN-γ secretion
systemic accumulation ([4]; 3 mg/kg Q2W): approximately 3 fold
time to steady-state concentrations ([4]; 3 mg/kg Q2W): ≤ 12 weeks
exposure versus dose ([4]; 0.1 to 10 mg/kg every 2 weeks): increased dose proportionally
geometric mean clearance (CL) ([4]; 0.1 to 10 mg/kg, single or multiple doses): 9.5 mL/h
geometric mean elimination half-life (t½) ([4]; 0.1 to 10 mg/kg): 26.7 days
geometric mean volume of distribution at steady state (Vss) ([4]; 0.1 to 10 mg/kg): 8.0 L
increase of CL of nivolumab ([4]; in combination with ipilimumab): 24%
subjects alive >5 years and progression-free without subsequent therapy (NSCLC [5]; among 16 NSCLC subjects who discontinued after 2 years of treatment): 12 subjects
OS rate (NSCLC [5]; at 2 years): 25%
OS rate (NSCLC [5]; at 3 years): 18%
2 year OS rate (NSCLC [6]; non-squamous NSCLC): 29%
2 year OS rate (NSCLC [6]; squamous NSCLC): 23%
3 year OS rates (NSCLC [6]; squamous and non-squamous NSCLC): 16%-18%
OS HR, continued treatment (advanced NSCLC; median follow-up 14.9 months post-randomization): 0.63
PFS HR, continue versus stop treatment (advanced NSCLC; post-randomization after 1 year of nivolumab): 0.42
median PFS (post-randomization) (advanced NSCLC; randomized to continue nivolumab): not reached
median PFS (post-randomization) (advanced NSCLC; randomized to stop treatment): 10.3 months

ipilimumab: drug combined with nivolumab; comparator in Keynote-006
effect on the clearance of ipilimumab ([4]; nivolumab in combination with ipilimumab): no effect
